We go through 2 molecules from patent publication US20170311603A1 (priority 2014, published 2017).

One test concerns VvPR1. The experiment in a line: Induction of plant defense gene VvPR1 in grapevine calli, qRT-PCR (Example 5). It is filed as cell-based, V. vinifera L. cv. Chardonnay. As to conditions: 10 mM in MPM1 medium, 4 days of culture; overexpressed when induction ratio ≧4. (In qPCR the cycle at which signal appears reflects the starting amount.)
A further test relates to VvEDS1. The experiment in a line: Induction of plant defense gene VvEDS1 in grapevine calli, qRT-PCR (Example 5). It is filed as cell-based, V. vinifera L. cv. Chardonnay. As to conditions: 10 mM in MPM1 medium, 4 days of culture; overexpressed when induction ratio ≧4.

Structures are written as SMILES.

Consider `O=C1[O][Bi]([OH])[O]c2ccccc21` [bismuth subsalicylate], for which, in the test on VvPR1, the “expression of VvPR1 gene” value was “overexpress”. In the test with VvEDS1, the “expression of VvEDS1 gene” value is listed as “overexpress”.

`O=C(O)c1ccccc1O` [salicylic acid]: the “expression of VvPR1 gene” value in the test on VvPR1 was “overexpress”. Moreover, the “expression of VvEDS1 gene” value with VvEDS1 is “overexpress”.
